Experiments:
Test in all cases: relative viability (nuclei count vs DMSO), 5 days (fraction); higher = more cells survive
[1] = test system: 201T
Method in brief: (§1)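 For relative viability, nuclei counts in treated wells were divided by those in vehicle wells. Lung cancer cell lines had been pin-tool dosed in 1536-well plates the day after seeding and cultured for 5 days, then fixed and stained in one step (final 0.05% Triton X-100, 1% formaldehyde, 1 ug/ml Hoechst) and imaged at 4×. Doses were one drug alone or a fixed anchor-drug dose plus five library-drug doses (not always all listed) in √10 steps, and values are duplicate-plate medians.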

[2] = test system: COR-L 105
Method in brief: as §1

[3] = test system: EPLC-272H
Method in brief: as §1

[4] = test system: H3255
Method in brief: as §1

[5] = test system: HCC-78
Method in brief: as §1

[6] = test system: HCC-827
Method in brief: as §1

[7] = test system: LC-2-ad
Method in brief: as §1

[8] = test system: LCLC-97TM1
Method in brief: as §1

[9] = test system: NCI-H1666
Method in brief: as §1

[10] = test system: NCI-H1915
Method in brief: as §1

[11] = test system: NCI-H2087
Method in brief: as §1

[12] = test system: NCI-H2126
Method in brief: as §1

[13] = test system: NCI-H2347
Method in brief: as §1

[14] = test system: NCI-H23
Method in brief: as §1

[15] = test system: NCI-H2405
Method in brief: as §1

[16] = test system: NCI-H322M
Method in brief: as §1

[17] = test system: NCI-H520
Method in brief: as §1

[18] = test system: NCI-H647
Method in brief: as §1

[19] = test system: NCI-H650
Method in brief: as §1

[20] = test system: NCI-H661
Method in brief: as §1

[21] = test system: PC-14
Method in brief: as §1

[22] = test system: RERF-LC-KJ
Method in brief: as §1

## Clc1ccc(Nc2nnc(Cc3ccncc3)c3ccccc23)cc1 [Vatalanib] + Cc1nc(NC(=O)N2CCC[C@H]2C(N)=O)sc1-c1ccnc(C(C)(C)C(F)(F)F)c1 [Alpelisib] (partner 2 µM)
[1]; first compound 0.04 µM
  relative viability: 0.984
[1]; first compound 0.1265 µM
  relative viability: 1.03
[1]; first compound 0.4 µM
  relative viability: 1.04
[1]; first compound 1.265 µM
  relative viability: 1.03
[1]; first compound 4 µM
  relative viability: 1.07
[2]; first compound 0.04 µM
  relative viability: 0.994
[2]; first compound 0.1265 µM
  relative viability: 0.994
[2]; first compound 0.4 µM
  relative viability: 1.15
[2]; first compound 1.265 µM
  relative viability: 1.12
[2]; first compound 4 µM
  relative viability: 1.04
[3]; first compound 0.04 µM
  relative viability: 0.824
[3]; first compound 0.1265 µM
  relative viability: 0.963
[3]; first compound 0.4 µM
  relative viability: 1.08
[3]; first compound 1.265 µM
  relative viability: 1.05
[3]; first compound 4 µM
  relative viability: 1.06
[4]; first compound 0.04 µM
  relative viability: 0.649
[4]; first compound 0.1265 µM
  relative viability: 0.666
[4]; first compound 0.4 µM
  relative viability: 0.514
[4]; first compound 1.265 µM
  relative viability: 0.705
[4]; first compound 4 µM
  relative viability: 0.618
[5]; first compound 0.04 µM
  relative viability: 0.255
[5]; first compound 0.1265 µM
  relative viability: 0.346
[5]; first compound 0.4 µM
  relative viability: 0.277
[5]; first compound 4 µM
  relative viability: 0.323
[6]; first compound 0.04 µM
  relative viability: 0.991
[6]; first compound 0.1265 µM
  relative viability: 1.01
[6]; first compound 0.4 µM
  relative viability: 0.828
[6]; first compound 1.265 µM
  relative viability: 1
[6]; first compound 4 µM
  relative viability: 0.786
[7]; first compound 0.04 µM
  relative viability: 0.86
[7]; first compound 0.1265 µM
  relative viability: 0.847
[7]; first compound 0.4 µM
  relative viability: 0.988
[7]; first compound 1.265 µM
  relative viability: 0.825
[7]; first compound 4 µM
  relative viability: 0.867
[8]; first compound 0.04 µM
  relative viability: 0.248
[8]; first compound 0.1265 µM
  relative viability: 0.2
[8]; first compound 0.4 µM
  relative viability: 0.262
[8]; first compound 1.265 µM
  relative viability: 0.178
[8]; first compound 4 µM
  relative viability: 0.353
[9]; first compound 0.04 µM
  relative viability: 1.23
[9]; first compound 0.1265 µM
  relative viability: 0.934
[9]; first compound 0.4 µM
  relative viability: 0.978
[9]; first compound 1.265 µM
  relative viability: 0.996
[9]; first compound 4 µM
  relative viability: 0.941
[10]; first compound 0.04 µM
  relative viability: 1.03
[10]; first compound 0.1265 µM
  relative viability: 1.05
[10]; first compound 0.4 µM
  relative viability: 1.06
[10]; first compound 1.265 µM
  relative viability: 1.04
[10]; first compound 4 µM
  relative viability: 1.1
[11]; first compound 0.04 µM
  relative viability: 1.1
[11]; first compound 0.1265 µM
  relative viability: 0.96
[11]; first compound 0.4 µM
  relative viability: 1.3
[11]; first compound 1.265 µM
  relative viability: 0.964
[11]; first compound 4 µM
  relative viability: 1.1
[12]; first compound 0.04 µM
  relative viability: 0.714
[12]; first compound 0.1265 µM
  relative viability: 0.75
[12]; first compound 0.4 µM
  relative viability: 0.761
[12]; first compound 1.265 µM
  relative viability: 0.725
[12]; first compound 4 µM
  relative viability: 0.742
[13]; first compound 0.04 µM
  relative viability: 1.05
[13]; first compound 0.1265 µM
  relative viability: 1.13
[13]; first compound 0.4 µM
  relative viability: 1.03
[13]; first compound 1.265 µM
  relative viability: 0.963
[13]; first compound 4 µM
  relative viability: 1.03
[14]; first compound 0.04 µM
  relative viability: 0.649
[14]; first compound 0.1265 µM
  relative viability: 0.672
[14]; first compound 0.4 µM
  relative viability: 0.78
[14]; first compound 1.265 µM
  relative viability: 0.775
[14]; first compound 4 µM
  relative viability: 0.75
[15]; first compound 0.04 µM
  relative viability: 0.959
[15]; first compound 0.1265 µM
  relative viability: 0.769
[15]; first compound 1.265 µM
  relative viability: 0.795
[15]; first compound 4 µM
  relative viability: 0.773
[16]; first compound 0.04 µM
  relative viability: 0.775
[16]; first compound 0.1265 µM
  relative viability: 0.709
[16]; first compound 0.4 µM
  relative viability: 0.75
[16]; first compound 1.265 µM
  relative viability: 0.782
[16]; first compound 4 µM
  relative viability: 0.795
[17]; first compound 0.04 µM
  relative viability: 0.848
[17]; first compound 0.1265 µM
  relative viability: 0.895
[17]; first compound 0.4 µM
  relative viability: 0.912
[17]; first compound 1.265 µM
  relative viability: 0.855
[17]; first compound 4 µM
  relative viability: 0.852
[18]; first compound 0.04 µM
  relative viability: 1.11
[18]; first compound 0.1265 µM
  relative viability: 1.05
[18]; first compound 0.4 µM
  relative viability: 1.19
[18]; first compound 1.265 µM
  relative viability: 1.1
[18]; first compound 4 µM
  relative viability: 1.05
[19]; first compound 0.04 µM
  relative viability: 1.24
[19]; first compound 0.1265 µM
  relative viability: 0.936
[19]; first compound 1.265 µM
  relative viability: 1.06
[19]; first compound 4 µM
  relative viability: 1.13
[20]; first compound 0.04 µM
  relative viability: 0.617
[20]; first compound 0.1265 µM
  relative viability: 0.557
[20]; first compound 0.4 µM
  relative viability: 0.717
[20]; first compound 1.265 µM
  relative viability: 0.653
[20]; first compound 4 µM
  relative viability: 0.519
[21]; first compound 0.04 µM
  relative viability: 0.993
[21]; first compound 0.1265 µM
  relative viability: 0.9
[21]; first compound 0.4 µM
  relative viability: 0.97
[21]; first compound 1.265 µM
  relative viability: 0.904
[21]; first compound 4 µM
  relative viability: 0.866
[22]; first compound 0.04 µM
  relative viability: 0.824
[22]; first compound 0.1265 µM
  relative viability: 0.859
[22]; first compound 0.4 µM
  relative viability: 0.77
[22]; first compound 1.265 µM
  relative viability: 0.74
[22]; first compound 4 µM
  relative viability: 0.765
